Assay results reported in patent US10124004B2, “Pyrido[3,4-d]pyrimidine derivative and pharmaceutically acceptable salt thereof” (Teijin Pharma Limited, priority 2015, dated 2018).
Read-outs that look alike come from different tables or passages of the source.

Columns and labels:
CDK2/cyclin A2 = target: T1, CDK2/cyclin A2 (Homo sapiens, UniProt P24941); assay: Human CDK2/cyclin A2 inhibitory activity (QS S Assist CDK2/Cyclin A2_FP Kit, IMAP fluorescence polarization); format: biochemical
T1 construct: purchased Carna Biosciences, Inc. QS S Assist CDK2/Cyclin A2_FP Kit
How it was run: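 Kinase activity read as fluorescence polarization (485/535 nm) after phosphorylated fluorescent substrate binds IMAP reagent (30 min, RT, dark). Enzyme (2.5 ng/well) reacted 60 min at RT with ATP/substrate/metal in HEPES pH 7.4 buffer with Tween 20 and DTT; no-enzyme wells define 0% activity; IC50 by curve fit.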

CDK4/cyclin D3 = target: T2, CDK4/cyclin D3 (Homo sapiens, UniProt P11802); assay: Human CDK4/cyclin D3 inhibitory activity (QS S Assist CDK4/Cyclin D3_FP Kit, IMAP fluorescence polarization); format: biochemical
T2 construct: purchased Carna Biosciences, Inc. QS S Assist CDK4/Cyclin D3_FP Kit
How it was run: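 IMAP fluorescence-polarization kinase assay with kit ATP/substrate/metal mix and 12.5 to 25 ng/well enzyme in 20 mM HEPES pH 7.4, 0.01% Tween20, 2 mM DTT. Reaction ran 45 min at room temperature, then binding reagent was added for 30 min in the dark. IC50 was taken from dose-response fits of percent inhibition.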

[1] = Human CDK2/cyclin A2 inhibitory activity, read-out: CDK2 Activity symbol
[2] = Human CDK4/cyclin D3 inhibitory activity, read-out: CDK4 Activity symbol
[3] = 50% inhibitory concentration against CDK2/cyclin A2, given as class symbol
[4] = 50% inhibitory concentration against CDK4/cyclin D3, given as class symbol

T2 sequence (P11802 whole entry): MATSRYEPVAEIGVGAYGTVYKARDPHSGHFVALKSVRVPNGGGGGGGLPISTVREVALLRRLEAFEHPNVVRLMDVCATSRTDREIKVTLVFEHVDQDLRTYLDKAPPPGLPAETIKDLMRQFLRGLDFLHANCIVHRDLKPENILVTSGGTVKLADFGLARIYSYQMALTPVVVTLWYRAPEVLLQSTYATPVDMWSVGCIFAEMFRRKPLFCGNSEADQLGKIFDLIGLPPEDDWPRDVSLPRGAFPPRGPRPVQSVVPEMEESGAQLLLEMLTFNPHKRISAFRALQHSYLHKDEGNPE
T2 sequence (P30281 whole entry partner): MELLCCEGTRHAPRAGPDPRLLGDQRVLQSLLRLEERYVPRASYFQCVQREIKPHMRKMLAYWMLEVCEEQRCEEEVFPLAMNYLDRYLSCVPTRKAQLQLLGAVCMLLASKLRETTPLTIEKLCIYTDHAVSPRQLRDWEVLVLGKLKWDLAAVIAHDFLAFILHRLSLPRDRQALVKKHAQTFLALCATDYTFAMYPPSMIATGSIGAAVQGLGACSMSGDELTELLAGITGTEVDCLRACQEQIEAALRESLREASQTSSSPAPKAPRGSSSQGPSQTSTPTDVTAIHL

Row | SMILES | IC50 (CDK2/cyclin A2; [1]) | IC50 (CDK4/cyclin D3; [2]) | IC50 (CDK2/cyclin A2; [3]) | IC50 (CDK4/cyclin D3; [4])
1 | CC(C)CN1CCN(c2ccc(Nc3ncc4cc([C@@H](C)O)nc(NC(C)C)c4n3)nn2)CC1 [Compound 586] | ≥ 0.1 µM | < 0.01 µM |  | 
2 | COC1CCN(c2ccc(Nc3ncc4cc([C@@H](C)O)nc(NC(C)C)c4n3)nn2)CC1 [Compound 761] |  |  | ≥ 0.1 µM | < 0.01 µM
3 | CC(C)Nc1nc(C(C)O)cc2cnc(Nc3ccc(N4CCC(O)C4)cn3)nc12 (stereo not shown) [Compound 77] | ≥ 0.1 µM | < 0.01 µM |  | 
4 | CO[C@H](C)c1cc2cnc(Nc3ccc(OCCN4CCOCC4)cn3)nc2c(NC(C)C)n1 [Compound 282] | ≥ 0.1 µM | < 0.01 µM |  | 
5 | C[C@@H](O)c1cc2cnc(Nc3ccc(OC[C@@H]4CCCN4)cn3)nc2c(N[C@H]2CCCOC2)n1 [Compound 782] |  |  | ≥ 0.1 µM | < 0.01 µM
6 | CO[C@H](C)c1cc2cnc(Nc3ccc(CN4CCN(CCO)CC4)cn3)nc2c(N[C@H]2CCCOC2)n1 [Compound 860] |  |  | ≥ 0.1 µM | < 0.01 µM
7 | Cc1cc(Nc2ncc3cc([C@@H](C)O)nc(NC(C)C)c3n2)ncc1CN1CCN(CCO)CC1 [Compound 1055] |  |  | ≥ 0.1 µM | 0.01 to 0.1 µM
8 | CCNc1nc([C@@H](C)O)cc2cnc(Nc3ccc4c(n3)CCN(CCN(C)C)C4)nc12 [Compound 1139] |  |  | ≥ 0.1 µM | < 0.01 µM
9 | O=C(O)C1CCN(Cc2ccc(Nc3ncc4cc(C(F)F)nc(NCC5CC5)c4n3)nc2)CC1 [Compound 1100] |  |  | ≥ 0.1 µM | 0.01 to 0.1 µM
10 | CC(C)Nc1nc(C(F)F)cc2cnc(Nc3ccc(CN4CC(O)C4)cn3)nc12 [Compound 126] | ≥ 0.1 µM | ≥ 0.1 µM |  | 
11 | CCCNc1nc([C@@H](C)O)cc2cnc(Nc3ccc(CN4CCC[C@H](O)C4)cn3)nc12 [Compound 1198] |  |  | ≥ 0.1 µM | < 0.01 µM
12 | CC(C)Nc1nc([C@@H](C)O)cc2cnc(Nc3ccc(N4CC5(CC(O)C5)C4)nn3)nc12 [Compound 524] | ≥ 0.1 µM | < 0.01 µM |  | 
13 | CC(C)Nc1nc([C@@H](C)O)cc2cnc(Nc3ccc(N4CCN(C(=O)OC(C)C)CC4)nn3)nc12 [Compound 767] |  |  | ≥ 0.1 µM | < 0.01 µM
14 | CC(C)Nc1nc([C@@H](C)O)cc2cnc(Nc3ccc(-c4cnn(C5CCNCC5)c4)cn3)nc12 [Compound 808] |  |  | ≥ 0.1 µM | < 0.01 µM
15 | CC(C)Nc1nc(C(F)F)cc2cnc(Nc3ccc(N4CCNCC4)cn3)nc12 [Compound 46] | 0.01 to 0.1 µM | < 0.01 µM |  | 
16 | CO[C@H](C)c1cc2cnc(Nc3ccc(N4CCN(CC(=O)O)CC4C(F)(F)F)cn3)nc2c(NC(C)C)n1 (stereo partly shown) [Compound 891] |  |  | ≥ 0.1 µM | 0.01 to 0.1 µM
17 | C[C@@H](O)c1cc2cnc(Nc3ccc(N4CCNCC4=O)cn3)nc2c(NC2CC(F)(F)C2)n1 [Compound 1211] |  |  | ≥ 0.1 µM | 0.01 to 0.1 µM
18 | C[C@@H](O)c1cc2cnc(Nc3ccc(N4CCNCC4=O)cn3)nc2c(NC2CCOC(C)(C)C2)n1 (stereo partly shown) [Compound 692] |  |  | ≥ 0.1 µM | < 0.01 µM
19 | C[C@@H](O)c1cc2cnc(Nc3ccc(CN4CCNCC4)cn3)nc2c(NCC2CCOCC2)n1 [Compound 312] | ≥ 0.1 µM | < 0.01 µM |  | 
20 | C[C@@H](O)c1cc2cnc(Nc3ccc(N4CCNCC4=O)cn3)nc2c(NC(C)(C)C)n1 [Compound 795] |  |  | 0.01 to 0.1 µM | < 0.01 µM
21 | CC(C)Nc1nc(C(F)F)c(Cl)c2cnc(Nc3ccc(N4CCNCC4)cn3)nc12 [Compound 101] | ≥ 0.1 µM | < 0.01 µM |  | 
22 | CC(O)c1cc2cnc(Nc3ccc(N4CCNCC4)cn3)nc2c(NC(C)c2cn[nH]c2)n1 (stereo not shown) [Compound 106] | ≥ 0.1 µM | < 0.01 µM |  | 
23 | CC(C)Nc1nc([C@@H](C)O)cc2cnc(Nc3ccc(N4CCN(C(C)C)CC4=O)cn3)nc12 [Compound 584] | ≥ 0.1 µM | < 0.01 µM |  | 
24 | C[C@@H](O)c1cc2cnc(Nc3ccc4c(n3)CCN(C(=O)CO)C4)nc2c(N[C@H]2CC[C@@H](C)CC2)n1 [Compound 653] |  |  | ≥ 0.1 µM | < 0.01 µM
25 | Cc1nc(Nc2ncc3cc(C4CCOC4)nc(NC(C)C)c3n2)ccc1N1CCNCC1=O (stereo not shown) [Compound 824] |  |  | ≥ 0.1 µM | < 0.01 µM

Row | SMILES | IC50 (CDK2/cyclin A2; [1]) | IC50 (CDK4/cyclin D3; [2]) | IC50 (CDK2/cyclin A2; [3]) | IC50 (CDK4/cyclin D3; [4])
26 | CNC(=O)C1CCN(Cc2ccc(Nc3ncc4cc([C@@H](C)OC)nc(NC(C)C)c4n3)nc2)CC1 [Compound 278] | ≥ 0.1 µM | < 0.01 µM |  | 
27 | CCCNc1nc([C@@H](C)O)cc2cnc(Nc3ccc(CN4CCC[C@@H](O)C4)cn3)nc12 [Compound 1195] |  |  | ≥ 0.1 µM | < 0.01 µM
28 | CCNc1nc(C(C)O)cc2cnc(Nc3ccc(N4CCNCC4)cn3)nc12 (stereo not shown) [Compound 23] | ≥ 0.1 µM | < 0.01 µM |  | 
29 | COCC(C)(C)Nc1nc([C@@H](C)O)cc2cnc(Nc3ccc(CN4CCC(C(C)(C)O)CC4)cn3)nc12 [Compound 196] | ≥ 0.1 µM | < 0.01 µM |  | 
30 | COCC(C)(C)Nc1nc([C@@H](C)O)cc2cnc(Nc3ccc(NCCO)nn3)nc12 [Compound 235] | ≥ 0.1 µM | 0.01 to 0.1 µM |  | 
31 | CO[C@H](C)c1cc2cnc(Nc3ccc(N4CCC(O)CC4)nn3)nc2c(NC(C)C)n1 [Compound 201] | ≥ 0.1 µM | 0.01 to 0.1 µM |  | 
32 | CC(C)Nc1nc(C(C)O)cc2cnc(Nc3ccc(N4CCC(O)C(F)C4)nn3)nc12 (stereo not shown) [Compound 608] | ≥ 0.1 µM | < 0.01 µM |  | 
33 | CC(C)Nc1nc(C2CCOC2)cc2cnc(Nc3ccc(N4CCN(CC(=O)O)CC4C(F)(F)F)cn3)nc12 (stereo not shown) [Compound 889] |  |  | ≥ 0.1 µM | 0.01 to 0.1 µM
34 | COCCNCc1ccc(Nc2ncc3cc([C@@H](C)O)nc(NC(C)(C)COC)c3n2)nc1 [Compound 242] | ≥ 0.1 µM | 0.01 to 0.1 µM |  | 
35 | CC(C)Nc1nc(C(F)F)cc2cnc(Nc3ccc(N4CCC(O)CC4)cn3)nc12 [Compound 50] | 0.01 to 0.1 µM | < 0.01 µM |  | 
36 | C[C@@H](O)c1cc2cnc(Nc3ccc(CN4CCC[C@@H](O)C4)cn3)nc2c(NC(C)(C)C)n1 [Compound 1197] |  |  | ≥ 0.1 µM | < 0.01 µM
37 | CC(C)Nc1nc(C2CCCO2)cc2cnc(Nc3ccc(CN4CCNCC4)cn3)nc12 (single isomer, unassigned) [Compound 729] |  |  | ≥ 0.1 µM | < 0.01 µM
38 | C[C@@H](O)c1cc2cnc(Nc3ccc(CN4CCC(C(=O)O)CC4)cn3)nc2c(NC(C)(C)C)n1 [Compound 837] |  |  | 0.01 to 0.1 µM | < 0.01 µM
39 | C[C@@H](O)c1cc2cnc(Nc3ccc(CN4CCN(CCO)CC4)cn3)nc2c(NCCC(F)(F)F)n1 [Compound 1214] |  |  | ≥ 0.1 µM | < 0.01 µM
40 | CC(=O)NCCc1ccc(Nc2ncc3cc(C(F)F)nc(NC(C)C)c3n2)nc1 [Compound 150] | 0.01 to 0.1 µM | < 0.01 µM |  | 
41 | CC(C)Nc1nc([C@@H](C)O)cc2cnc(Nc3ccc(N4CCN(CC(=O)N(C)C)CC4=O)cn3)nc12 [Compound 962] |  |  | ≥ 0.1 µM | < 0.01 µM
42 | Cc1nc(Nc2ncc3cc([C@@H](C)O)nc(NCC4CC4)c3n2)ccc1N1CCNCC1 [Compound 1095] |  |  | ≥ 0.1 µM | < 0.01 µM
43 | COC(C)c1cc2cnc(Nc3ccc(CN4CCNCC4)cn3)nc2c(NC2CCC(C)(C)OC2)n1 (stereo not shown) [Compound 432] | ≥ 0.1 µM | < 0.01 µM |  | 
44 | CC(C)Nc1nc(C(F)F)cc2cnc(Nc3ccc(CCC(N)=O)cn3)nc12 [Compound 121] | 0.01 to 0.1 µM | < 0.01 µM |  | 
45 | CNC(=O)CN1CCN(c2ccc(Nc3ncc4cc([C@@H](C)O)nc(NC(C)C)c4n3)nn2)CC1 [Compound 960] |  |  | ≥ 0.1 µM | < 0.01 µM
46 | C[C@@H](O)c1cc2cnc(Nc3ccc(CN4CCN(CCO)CC4)cn3)nc2c(NC2CCC2)n1 [Compound 998] |  |  | ≥ 0.1 µM | < 0.01 µM
47 | CCCNc1nc([C@@H](C)O)cc2cnc(Nc3ccc(CN4CC5CCC(C4)N5C)cn3)nc12 [Compound 1223] |  |  | ≥ 0.1 µM | < 0.01 µM
48 | COC[C@@H](C)Nc1nc([C@@H](C)O)cc2cnc(Nc3ccc(CN4CCN(C)CC4)cn3)nc12 [Compound 1105] |  |  | ≥ 0.1 µM | < 0.01 µM
49 | CO[C@H](C)c1cc2cnc(Nc3ccc(N4CCN(C(C)C#N)CC4)nn3)nc2c(NC(C)C)n1 (stereo partly shown) [Compound 907] |  |  | ≥ 0.1 µM | < 0.01 µM
50 | CC(C)Nc1nc([C@@H](C)O)cc2cnc(Nc3ccc(CN4CC5CCC(C4)N5C)cn3)nc12 [Compound 1224] |  |  | ≥ 0.1 µM | < 0.01 µM
